This note sets out measurements from patent publication US20240343733A1, “COMPOUNDS FOR TARGETING DEGRADATION OF IRAK4 PROTEINS” (BIOGEN MA INC., priority 2021, published 2024).

A short description of data set [1]: Pharmacokinetics (PK) in Male Beagle Dogs. Particulars: dog, plasma; for Vd: read-out: Vdss. In kind it is in vivo. The procedure: Assay 3. Pharmacokinetics (PK) in Male Beagle Dogs
The pharmacokinetic (PK) profile in plasma of two compounds of the present invention was determined in male beagle dogs following single dose IV (5 mg/kg) and PO (10 mg/kg) administration. This study was performed under non-GLP conditions, and unless otherwise stated, all analytical reagents were standard laboratory reagent grade.
Male beagle dogs were housed individually and maintained in a controlled environment. Pedigree® standard dog chow (Pedigree India Private Ltd, Telangana, India) was provided once daily. Drinking water was available ad libitum. Environmental controls for the animal room were set to maintain a temperature range of 22-25° C., relative humidity range of 40-70%, and a 12-hour light/12-hour dark cycle. Normal healthy animals weighing 10±1 kg, certified by the attending veterinarian, were selected and acclimatized for a minimum of three days prior to initiation of study. Dogs were identified by chip number inserted at the neck region. The study protocol was reviewed and approved by the Institutional Animal Ethics Committee (IAEC).
2-[4-[[4-[1-(2,6-dioxo-3-piperidyl)-3-methyl-2-oxo-benzimidazol-5-yl]-1-piperidyl]methyl]cyclohexyl]-7-isopropoxy-N-pyrazolo[1,5-a]pyrimidin-3-yl-imidazo[1,2-a]pyridine-6-carboxamide, as described in Example 48 (“Compound 48”), and 2-((1R,4S)-4-((4-(1-(2,6-dioxopiperidin-3-yl)-3-methyl-2-oxo-2,3-dihydro-1H-benzo[d]imidazol-5-yl)piperidin-1-yl)methyl)cyclohexyl)-N-(1-((1S,2R)-2-fluorocyclopropyl)-2-oxo-1,2-dihydropyridin-3-yl)-7-isopropoxyimidazo[1,2-a]pyridine-6-carboxamide, as described in Example 169 (“Compound 169”), were each formulated by dissolving the compound in polyethylene glycol (PEG400) (10%) with stirring, followed by the slow addition of 11.11% 2-Hydroxypropyl-beta-cyclodextrin (HPβCD) (90%) in water. Vehicle dose was PEG400 (10%) and 11.11% HP-β-CD (90%) in water. Formulations and vehicle were freshly prepared on the day of dosing and stored at room temperature until used.
All animals were weighed prior to drug administration. The animals were divided into intravenous (IV) group and per os (PO) group for each compound tested, with 3 animals in each group. The vehicle dosing group also included IV and PO groups, making a total of 6 groups of 3 animals each, for 18 animals total. The animals were restrained physically in sternal recumbently, on an examination table. The IV dose was administered by intravenous bolus injection into the cephalic vein and the PO dose was administered via gastric tube. The dosing volume was 1 mL/kg for IV groups and 2 mL/kg for PO groups. The dosing concentration was 5 mg/mL for both IV and PO groups respectively. The animals were fasted overnight and food was provided 4 hours post dose. […] Apart from this, animals were observed twice daily for any clinical signs, if any, and noted accordingly.
From the vehicle treatment group, whole blood was collected for peripheral blood mononuclear cells (PBMC) isolation at Pre-dose, and at 2, 8, 24, 48, 72 and 96 hour timepoints. For both tested compounds IV and PO dosing groups, whole blood was collected for plasma isolation at Pre-dose, and 0.033, 0.083, 0.167, 0.33, 1, 2, 4, 6, 8, 24, 48, 72 and 96 hour timepoints. The anti-coagulant solution used was 6% (v/v) Sodium citrate (200 mM, pH 4.79) (pre-chilled tubes). The whole blood from both IV and PO compound treatment dosing groups collected at Pre-dose, 2, 8, 24, 48, 72 and 96 hours were subjected to PBMC isolation.
For sample preparation, approximately 1-2 mL of whole blood was drawn from the peripheral vein and collected in labeled tubes containing lithium heparin, then stored on ice. The blood samples were centrifuged within 15 minutes to separate plasma at 1540 g at 4° C. for 10 minutes. The plasma was separated and transferred to pre-labeled microcentrifuge tubes and immediately frozen at −80±10° C. until bioanalysis. […]

The next data set addresses T1, IKZF1 (Homo sapiens, UniProt Q13422).
T1 construct: endogenously expressing IKZF1 with HiBiT fusion tag via CRISPR
Nature of the data set: IKZF1 Degradation Assay, HiBiT Method. In kind it is cell-based. Conditions: NCIH929 cells expressing HiBiT-tagged IKZF1, 6 hours, top concentration 10 μM. Summed up: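 NCIH929 cells expressing HiBiT-tagged IKZF1, 15000 cells/well in RPMI with 10% FBS and 0.05 mM 2-mercaptoethanol, exposed to compound 6 h at 37 °C. Remaining IKZF1 quantified by lytic HiBiT luminescence, normalised to untreated-cell and medium-only controls.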
(In general: With HiBiT, luminescence reflects the tagged protein that the partner subunit can reach.)

Molecules are shown by their SMILES. Like-named read-outs stand apart in the source and are kept apart here. Where only a bound is given, the exact number is not on record here.

T1 sequence (Q96SW2 whole entry partner, the tested form may be a part): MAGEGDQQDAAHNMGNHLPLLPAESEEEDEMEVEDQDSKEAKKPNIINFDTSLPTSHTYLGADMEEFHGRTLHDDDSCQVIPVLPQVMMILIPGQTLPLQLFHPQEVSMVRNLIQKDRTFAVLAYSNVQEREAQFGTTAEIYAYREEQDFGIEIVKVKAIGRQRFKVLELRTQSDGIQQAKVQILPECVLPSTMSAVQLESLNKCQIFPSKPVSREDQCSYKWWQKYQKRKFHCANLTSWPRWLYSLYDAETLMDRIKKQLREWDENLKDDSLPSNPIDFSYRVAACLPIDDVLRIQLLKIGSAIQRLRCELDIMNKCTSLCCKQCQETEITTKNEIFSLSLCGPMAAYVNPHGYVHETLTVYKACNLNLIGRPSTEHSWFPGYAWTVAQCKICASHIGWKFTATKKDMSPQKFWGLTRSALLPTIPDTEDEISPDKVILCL
T1 sequence (Q16531 whole entry partner, the tested form may be a part): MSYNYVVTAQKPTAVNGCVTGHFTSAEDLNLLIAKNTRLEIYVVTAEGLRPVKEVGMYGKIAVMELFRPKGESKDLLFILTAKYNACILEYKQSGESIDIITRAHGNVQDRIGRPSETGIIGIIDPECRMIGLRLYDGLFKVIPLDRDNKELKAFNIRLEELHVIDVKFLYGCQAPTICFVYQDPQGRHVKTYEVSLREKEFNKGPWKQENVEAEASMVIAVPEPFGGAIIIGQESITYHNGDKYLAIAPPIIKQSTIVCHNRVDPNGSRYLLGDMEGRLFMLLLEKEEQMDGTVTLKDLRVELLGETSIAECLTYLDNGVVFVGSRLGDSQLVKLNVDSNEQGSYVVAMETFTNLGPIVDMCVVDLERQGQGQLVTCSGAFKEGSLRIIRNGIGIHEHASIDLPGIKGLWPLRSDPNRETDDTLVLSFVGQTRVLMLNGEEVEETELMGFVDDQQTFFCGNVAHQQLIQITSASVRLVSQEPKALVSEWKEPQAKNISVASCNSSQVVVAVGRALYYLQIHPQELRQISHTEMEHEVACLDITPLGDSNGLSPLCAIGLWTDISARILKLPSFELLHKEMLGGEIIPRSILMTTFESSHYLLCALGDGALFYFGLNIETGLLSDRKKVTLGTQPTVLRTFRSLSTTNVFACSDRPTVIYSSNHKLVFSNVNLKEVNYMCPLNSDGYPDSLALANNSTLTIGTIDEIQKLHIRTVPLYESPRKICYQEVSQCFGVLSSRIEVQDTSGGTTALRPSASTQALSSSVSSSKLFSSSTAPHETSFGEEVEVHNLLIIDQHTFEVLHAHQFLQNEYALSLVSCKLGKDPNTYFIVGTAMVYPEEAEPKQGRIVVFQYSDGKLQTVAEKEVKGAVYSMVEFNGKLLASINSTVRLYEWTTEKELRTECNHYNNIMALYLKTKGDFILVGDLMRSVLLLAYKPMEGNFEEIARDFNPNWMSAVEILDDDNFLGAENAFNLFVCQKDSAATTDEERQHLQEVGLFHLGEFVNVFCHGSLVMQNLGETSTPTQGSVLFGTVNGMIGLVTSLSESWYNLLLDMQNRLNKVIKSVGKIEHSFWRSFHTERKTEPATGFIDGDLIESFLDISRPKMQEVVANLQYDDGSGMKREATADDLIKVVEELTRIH
T1 sequence (Q13422 whole entry, the tested form may be a part): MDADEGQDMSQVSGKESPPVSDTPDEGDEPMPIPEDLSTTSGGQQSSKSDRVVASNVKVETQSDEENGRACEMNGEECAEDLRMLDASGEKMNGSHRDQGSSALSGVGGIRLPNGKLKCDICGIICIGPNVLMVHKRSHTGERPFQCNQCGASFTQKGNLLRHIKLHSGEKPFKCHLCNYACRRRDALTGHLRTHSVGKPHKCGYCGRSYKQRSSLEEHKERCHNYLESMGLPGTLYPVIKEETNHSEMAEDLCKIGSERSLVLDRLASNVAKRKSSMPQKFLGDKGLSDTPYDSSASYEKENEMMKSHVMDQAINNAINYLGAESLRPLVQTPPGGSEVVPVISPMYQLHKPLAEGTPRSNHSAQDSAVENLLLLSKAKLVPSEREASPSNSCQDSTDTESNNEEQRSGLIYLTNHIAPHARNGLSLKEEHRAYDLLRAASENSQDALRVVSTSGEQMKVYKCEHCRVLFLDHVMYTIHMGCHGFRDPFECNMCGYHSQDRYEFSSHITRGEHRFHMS

By AUC(0-t) is commonly meant exposure summed from dosing to a finite time, without extrapolation to infinity. By clearance is commonly meant the volume of plasma or blood freed of the substance per unit of time. What is called half-life is how long it takes for the measured level to halve. A lower half-life goes with rapid decline. Broadly, the Cmax is the peak of the concentration-time curve. In general, bioavailability refers to dose-corrected exposure relative to a reference, in per cent. A lower bioavailability goes with poor availability. For the compound `CC(C)Oc1cc2nc([C@H]3CC[C@H](CN4CCC(c5ccc6c(c5)n(C)c(=O)n6C5CCC(=O)NC5=O)CC4)CC3)cn2cc1C(=O)Nc1cccn([C@H]2C[C@H]2F)c1=O` (stereo partly drawn) [Compound 169, 2-((1R,4S)-4-((4-(1-(2,6-dioxopiperidin-3-yl)-3-methyl-2-oxo-2,3-dihydro-1H-benzo[d]imidazol-5-yl)piperidin-1-yl)methyl)cyclohexyl)-N-(1-((1S,2R)-2-fluorocyclopropyl)-2-oxo-1,2-dihydropyridin-3-yl)-7-isopropoxyimidazo[1,2-a]pyridine-6-carboxamide], in data set [1] (5 mg/kg IV, mean (Table 5)), the AUC(0-t) is 2210 ng·h/mL, the C0 came to 3160 ng/mL, the clearance is 35 mL/min/kg and the half-life is 42.5 h. Moreover, the Vd in data set [1] (5 mg/kg IV, mean (Table 5)) came out at 58 L/kg. Also, in data set [1] (10 mg/kg PO, mean (Table 6)), the AUC(0-t) was 472 ng·h/mL, the maximum concentration (Cmax) worked out at 32.2 ng/mL and the bioavailability stood at 10.7%.

What is called DC50 is the concentration giving 50% degradation. Low values mean a more potent degrader, high ones a less potent degrader. In data set [1] (5 mg/kg IV, mean), `CC(C)Oc1cc2nc([C@H]3CC[C@H](CN4CCC(c5ccc6c(c5)n(C)c(=O)n6C5CCC(=O)NC5=O)CC4)CC3)cn2cc1C(=O)Nc1cnn2cccnc12` (some centres unmarked) [Compound 48, 2-[4-[[4-[1-(2,6-dioxo-3-piperidyl)-3-methyl-2-oxo-benzimidazol-5-yl]-1-piperidyl]methyl]cyclohexyl]-7-isopropoxy-N-pyrazolo[1,5-a]pyrimidin-3-yl-imidazo[1,2-a]pyridine-6-carboxamide] showed an AUC(0-t) of 1720 ng·h/mL, a C0 of 4180 ng/mL, a clearance of 46.3 mL/min/kg and a half-life of 34.5 h. For the same compound, the Vd in data set [1] (5 mg/kg IV, mean) was 58.5 L/kg. In data set [1] (10 mg/kg PO, mean), this compound gave an AUC(0-t) of 242 ng·h/mL, a Cmax of 33.9 ng/mL and a bioavailability of 7.02%. Also, the half-maximal degradation concentration (DC50) at IKZF1 is > 10 µM.
